Read-outs that look alike come from different tables or passages of the source.
Tests used:
E. coli mL308 225 = assay: In Vitro Anti-Bacterial Activity Assay (MIC), gram negative; type: cell-based; conditions: Escherichia coli, ML308225, 18 h
S. aureus RN450 = assay: In Vitro Anti-Bacterial Activity Assay (MIC), gram positive; type: cell-based; conditions: Staphylococcus aureus, RN450, 18 h
[1] = MIC class, Table 3, read-out: Antibiotic Activity Gram −
[2] = MIC class, Table 3, read-out: Antibiotic Activity Gram +
[3] = gram negative bacteria, read-out: Antibiotic Activity Gram − (MIC)
[4] = gram positive bacteria, read-out: Antibiotic Activity Gram + (MIC)
[5] = MIC class, Table 3 (Continued), read-out: Gram− activity
[6] = MIC class, Table 3 (Continued), read-out: Gram+ activity

| Structure (SMILES) | MIC (E. coli mL308 225; [1]) | MIC (S. aureus RN450; [2]) | MIC (E. coli mL308 225; [3]) | MIC (S. aureus RN450; [4]) | other results |
| --- | --- | --- | --- | --- | --- |
| CN(C)C1C(O)=C(C(N)=O)C(=O)[C@@]2(O)C(O)=C3C(=O)c4c(O)ccc(NS(C)(=O)=O)c4C[C@H]3C[C@@H]12 (stereo partly shown) [JS] | > 4 µg/mL | < 4 µg/mL |  |  |  |
| CN(C)[C@@H]1C(O)=C(C(N)=O)C(=O)[C@@]2(O)C(O)=C3C(=O)c4c(O)c(N)cc(-c5ccoc5)c4C[C@H]3C[C@@H]12 [KT] | < 4 µg/mL | < 4 µg/mL |  |  |  |
| CN(C)c1cc(C#Cc2cccc(O)c2)c(O)c2c1C[C@H]1C[C@H]3[C@H](N(C)C)C(O)=C(C(N)=O)C(=O)[C@@]3(O)C(O)=C1C2=O [AJ] | > 4 µg/mL | < 4 µg/mL |  |  |  |
| CC(C)COC(=O)Nc1cc(N(C)C)c2c(c1O)C(=O)C1=C(O)[C@]3(O)C(=O)C(C(N)=O)=C(O)[C@@H](N(C)C)[C@@H]3C[C@@H]1C2 [DU] | > 4 µg/mL | < 4 µg/mL |  |  |  |
| CN(C)[C@@H]1C(O)=C(C(N)=O)C(=O)[C@@]2(O)C(O)=C3C(=O)c4c(O)ccc(CNCC(C)(C)C)c4C[C@H]3C[C@@H]12 |  |  | < 4 µg/mL | < 4 µg/mL |  |
| COc1ccc(C=O)cc1-c1ccc(O)c2c1C[C@H]1C[C@H]3[C@H](N(C)C)C(O)=C(C(N)=O)C(=O)[C@@]3(O)C(O)=C1C2=O [BC] | < 4 µg/mL | < 4 µg/mL |  |  |  |
| COC(=O)O[C@@]12C(=O)C(C(N)=O)=C(O)[C@@H](N(C)C)[C@@H]1C[C@@H]1Cc3cccc(O)c3C(=O)C1=C2O |  |  | > 4 µg/mL | > 4 µg/mL |  |
| Cc1cc(-c2ccc(O)c3c2C[C@H]2C[C@H]4[C@H](N(C)C)C(O)=C(C(N)=O)C(=O)[C@@]4(O)C(O)=C2C3=O)ccc1F |  |  | < 4 µg/mL | < 4 µg/mL |  |
| CC(=O)c1cc(I)c(O)c2c1C[C@H]1C[C@H]3[C@H](N(C)C)C(O)=C(C(N)=O)C(=O)[C@@]3(O)C(O)=C1C2=O [JW] | > 4 µg/mL | > 4 µg/mL |  |  |  |
| CN(C)c1cc(NCc2cc(F)cc(F)c2)c(O)c2c1C[C@H]1C[C@H]3[C@H](N(C)C)C(O)=C(C(N)=O)C(=O)[C@@]3(O)C(O)=C1C2=O |  |  | > 4 µg/mL | > 4 µg/mL |  |
| CN(C)[C@@H]1C(O)=C(C(N)=O)C(=O)[C@@]2(O)C(O)=C3C(=O)c4c(O)ccc(CN(CC5CC5)CC5CC5)c4C[C@H]3C[C@@H]12 [KC] | < 4 µg/mL | < 4 µg/mL |  |  |  |
| CC(CC(F)(F)F)N(C)Cc1cc(N(C)C)c2c(c1O)C(=O)C1=C(O)[C@]3(O)C(=O)C(C(N)=O)=C(O)[C@@H](N(C)C)[C@@H]3C[C@@H]1C2 (stereo partly shown) |  |  | < 4 µg/mL | < 4 µg/mL |  |
| CN(C)c1cc(CNCc2cccn2C)c(O)c2c1C[C@H]1C[C@H]3[C@H](N(C)C)C(O)=C(C(N)=O)C(=O)[C@@]3(O)C(O)=C1C2=O |  |  | > 4 µg/mL | < 4 µg/mL |  |
| CN(C)c1cc(-c2ccc(OC(F)(F)F)cc2)c(O)c2c1C[C@H]1C[C@H]3[C@H](N(C)C)C(O)=C(C(N)=O)C(=O)[C@@]3(O)C(O)=C1C2=O [EK] | > 4 µg/mL | < 4 µg/mL |  |  |  |
| CC(C)OC(=O)c1cccc(-c2ccc(O)c3c2C[C@H]2C[C@H]4[C@H](N(C)C)C(O)=C(C(N)=O)C(=O)[C@@]4(O)C(O)=C2C3=O)c1 |  |  | < 4 µg/mL | < 4 µg/mL |  |
| CONCc1cc(CNCC(C)(C)C)c(O)c2c1C[C@H]1C[C@H]3[C@H](N(C)C)C(O)=C(C(N)=O)C(=O)[C@@]3(O)C(O)=C1C2=O |  |  | > 4 µg/mL | < 4 µg/mL |  |
| CN(C)[C@H]1C(O)=C(C(N)=O)C(=O)[C@@]2(O)C(O)=C3C(=O)c4c(O)ccc(-c5ccc(NC(=O)C(C)(C)C)cc5)c4C[C@H]3C[C@@H]12 [GT] | > 4 µg/mL | < 4 µg/mL |  |  |  |
| CN1CCC(NCc2cc(N(C)C)c3c(c2O)C(=O)C2=C(O)[C@]4(O)C(=O)C(C(N)=O)=C(O)[C@@H](N(C)C)[C@@H]4C[C@@H]2C3)CC1 |  |  | > 4 µg/mL | > 4 µg/mL |  |
| CN(C)c1cc(CNC(=O)OCC(C)(C)C)c(O)c2c1C[C@H]1C[C@H]3[C@H](N(C)C)C(O)=C(C(N)=O)C(=O)[C@@]3(O)C(O)=C1C2=O [EN] | > 4 µg/mL | < 4 µg/mL |  |  |  |
| CC(=O)c1cc(C(C)=O)c2c(c1O)C(=O)C1=C(O)[C@]3(O)C(=O)C(C(N)=O)=C(O)[C@@H](N(C)C)[C@@H]3C[C@@H]1C2 [EB] | > 4 µg/mL | < 4 µg/mL |  |  |  |
| CN(C)c1cc(C=O)c(O)c2c1C[C@H]1C[C@H]3[C@@H](N(C)C)C(O)=C(C(N)=O)C(=O)[C@@]3(O)C(O)=C1C2=O [NM] | < 4 µg/mL | < 4 µg/mL |  |  |  |

| Structure (SMILES) | MIC (E. coli mL308 225; [1]) | MIC (S. aureus RN450; [2]) | MIC (E. coli mL308 225; [3]) | MIC (S. aureus RN450; [4]) | other results |
| --- | --- | --- | --- | --- | --- |
| CC(O)C#Cc1ccc(O)c2c1C[C@H]1C[C@H]3[C@H](N(C)C)C(O)=C(C(N)=O)C(=O)[C@@]3(O)C(O)=C1C2=O (stereo partly shown) [BD] | < 4 µg/mL | < 4 µg/mL |  |  |  |
| CC1CCN(Cc2cc(N(C)C)c3c(c2O)C(=O)C2=C(O)[C@]4(O)C(=O)C(C(N)=O)=C(O)[C@@H](N(C)C)[C@@H]4C[C@@H]2C3)CC1 |  |  | < 4 µg/mL | < 4 µg/mL |  |
| CN(C)[C@@H]1C(O)=C(C(N)=O)C(=O)[C@@]2(O)C(O)=C3C(=O)c4c(O)ccc(C#Cc5ccccc5)c4C[C@H]3C[C@@H]12 |  |  |  |  | MIC (E. coli mL308 225; [5]): < 4 µg/mL; MIC (S. aureus RN450; [6]): < 4 µg/mL |
| CN(C)c1cc(-c2ccc(Cl)cc2)c(O)c2c1C[C@H]1C[C@H]3[C@H](N(C)C)C(O)=C(C(N)=O)C(=O)[C@@]3(O)C(O)=C1C2=O [AF] | > 4 µg/mL | < 4 µg/mL |  |  |  |
| CN(C)c1cc(CNCC(=O)C(C)(C)C)c(O)c2c1C[C@H]1C[C@H]3[C@H](N(C)C)C(O)=C(C(N)=O)C(=O)[C@@]3(O)C(O)=C1C2=O |  |  | > 4 µg/mL | < 4 µg/mL |  |
| CC(=O)c1ccc(-c2cc(N(C)C)c3c(c2O)C(=O)C2=C(O)[C@]4(O)C(=O)C(C(N)=O)=C(O)[C@@H](N(C)C)[C@@H]4C[C@@H]2C3)cc1 |  |  | > 4 µg/mL | < 4 µg/mL |  |
| CN(Cc1cc(N(C)C)c2c(c1O)C(=O)C1=C(O)[C@]3(O)C(=O)C(C(N)=O)=C(O)[C@@H](N(C)C)[C@@H]3C[C@@H]1C2)CC(C)(C)C |  |  | < 4 µg/mL | < 4 µg/mL |  |
| CC(=O)c1cc(CNCC(C)(C)C)c(O)c2c1C[C@H]1C[C@H]3[C@H](N(C)C)C(O)=C(C(N)=O)C(=O)[C@@]3(O)C(O)=C1C2=O |  |  | > 4 µg/mL | < 4 µg/mL |  |
| NC(=O)C1=C(O)C[C@@H]2C[C@@H]3Cc4cccc(O)c4C(=O)C3=C(O)[C@]2(O)C1=O |  |  | < 4 µg/mL | < 4 µg/mL |  |
| CN(C)c1ccc(NC(=O)NCc2cc(N(C)C)c3c(c2O)C(=O)C2=C(O)[C@]4(O)C(=O)C(C(N)=O)=C(O)[C@@H](N(C)C)[C@@H]4C[C@@H]2C3)cc1 [FN] | > 4 µg/mL | < 4 µg/mL |  |  |  |
| CN(C)[C@@H]1C(O)=C(C(N)=O)C(=O)[C@@]2(O)C(O)=C3C(=O)c4c(O)ccc(C=C5CCC5)c4C[C@H]3C[C@@H]12 |  |  |  |  | MIC (E. coli mL308 225; [5]): < 4 µg/mL; MIC (S. aureus RN450; [6]): < 4 µg/mL |
| CN(C)[C@@H]1C(O)=C(C(N)=O)C(=O)[C@@]2(O)C(O)=C3C(=O)c4c(O)c(C(C)(C)C)cc(CNC(=O)c5cccnc5)c4C[C@H]3C[C@@H]12 [CE] | > 4 µg/mL | > 4 µg/mL |  |  |  |
| CN(C)[C@@H]1C(O)=C(C(N)=O)C(=O)[C@@]2(O)C(O)=C3C(=O)c4c(O)cc(Cl)c(N)c4C[C@H]3C[C@@H]12 |  |  | > 4 µg/mL | > 4 µg/mL |  |
| CN(C)C1C(O)=C(C(N)=O)C(=O)[C@@]2(O)C(O)=C3C(=O)c4c(O)ccc(CNC5CCCC5)c4C[C@H]3C[C@@H]12 (stereo partly shown) [NE] | < 4 µg/mL | < 4 µg/mL |  |  |  |
| C[C@H]1c2ccc(CN3CCC(F)(F)CC3)c(O)c2C(=O)C2=C(O)[C@]3(O)C(=O)C(C(N)=O)=C(O)[C@@H](N(C)C)[C@@H]3[C@@H](O)[C@@H]21 |  |  | < 4 µg/mL | < 4 µg/mL |  |
| COC(=O)/C=C/c1ccc(O)c2c1C[C@H]1C[C@H]3[C@H](N(C)C)C(O)=C(C(N)=O)C(=O)[C@@]3(O)C(O)=C1C2=O [NJ] | > 4 µg/mL | < 4 µg/mL |  |  |  |
| CONC(=O)c1cccc(-c2ccc(O)c3c2C[C@H]2C[C@H]4[C@H](N(C)C)C(O)=C(C(N)=O)C(=O)[C@@]4(O)C(O)=C2C3=O)c1 |  |  | > 4 µg/mL | < 4 µg/mL |  |
| CC1CCN(CC(=O)c2ccc(O)c3c2C[C@H]2C[C@H]4[C@H](N(C)C)C(O)=C(C(N)=O)C(=O)[C@@]4(O)C(O)=C2C3=O)CC1 |  |  | > 4 µg/mL | < 4 µg/mL |  |
| CN(C)C1C(O)=C(C(N)=O)C(=O)[C@@]2(O)C(O)=C3C(=O)c4c(O)c(CNCC(C)(C)C)cc(CNCC(C)(C)C)c4C[C@H]3C[C@@H]12 (stereo partly shown) [MU] | < 4 µg/mL | < 4 µg/mL |  |  |  |
| C/C(=N\OC(C)(C)C)c1ccc(O)c2c1C[C@H]1C[C@H]3[C@H](N(C)C)C(O)=C(C(N)=O)C(=O)[C@@]3(O)C(O)=C1C2=O |  |  | < 4 µg/mL | < 4 µg/mL |  |
